Data as given in PMC7483469, “The overexpression of OsACBP5 protects transgenic rice against necrotrophic, hemibiotrophic and biotrophic pathogens” (Scientific Reports, 2020).

Molecular target: T1, (His)6-OsACBP5; rOsACBP5 (Oryza sativa, UniProt Q10P83)
T1 construct: gene ACBP5; N-terminal (His)6-tag, plasmid pOS543 (from pRSETA), E. coli BL21(DE3) Star pLysS, soluble fraction, HisTrap
T1 sequence (Q10P83 32-569): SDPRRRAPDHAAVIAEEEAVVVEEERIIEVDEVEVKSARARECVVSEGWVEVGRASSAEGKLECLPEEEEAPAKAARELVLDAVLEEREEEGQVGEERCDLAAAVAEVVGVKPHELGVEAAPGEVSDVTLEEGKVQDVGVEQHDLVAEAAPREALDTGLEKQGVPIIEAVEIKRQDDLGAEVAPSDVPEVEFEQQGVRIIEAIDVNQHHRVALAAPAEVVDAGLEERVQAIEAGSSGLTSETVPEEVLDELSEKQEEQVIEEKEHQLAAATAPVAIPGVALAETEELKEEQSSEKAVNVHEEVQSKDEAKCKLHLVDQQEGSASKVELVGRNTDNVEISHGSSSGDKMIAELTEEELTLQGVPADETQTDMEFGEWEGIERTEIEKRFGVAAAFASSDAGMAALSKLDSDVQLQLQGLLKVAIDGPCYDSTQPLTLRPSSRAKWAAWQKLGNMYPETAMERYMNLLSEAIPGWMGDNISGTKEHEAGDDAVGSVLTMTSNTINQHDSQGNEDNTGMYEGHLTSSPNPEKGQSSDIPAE
Assay: isothermal titration calorimetry
Format: binding

CC/C=C\C/C=C\C/C=C\CCCCCCCC(=O)SCCNC(=O)CCNC(=O)[C@H](O)C(C)(C)COP(=O)(O)OP(=O)(O)OC[C@H]1O[C@@H](n2cnc3c(N)ncnc32)[C@H](O)[C@@H]1OP(=O)(O)O [18:3-acyl-CoA ester]
Kd: 0.0595 µM
